Reference: patent publication US20230233577A1, “17Beta-ESTRADIOL/VITAMIN C MOLECULAR COMPLEX, PREPARATION METHOD, AND USE THEREOF” (ZHEJIANG MEDICINE CO., LTD.XINCHANG PHARMACEUTICAL FACTORY, priority 2020, published 2023)
Marks after values point to notes of the source that are not given here.

What was measured:
Assay type in all cases: in vivo, ICR mice
[1] = system: ovariectomized female mice; experiment: Tail bleeding time (thrombosis side effect) in ovariectomized female mice; settings: for Bleeding time (tail, mean ± SD): ovariectomized mice, oral, 30 min after last administration, n = 11
[2] = system: ovariectomized female mice; experiment: Trabecular bone density in ovariectomized female mice (CT of left femur); settings: oral, 4 weeks, n = 11
[3] = system: ovariectomized female mice; experiment: Femoral mineral content (BMC, ash weight/dry weight) in ovariectomized female mice; settings: ratio femoral ash weight/dry weight, oral, 4 weeks, n = 11
[4] = system: ovariectomized female mice; experiment: Pathological sections of oviduct walls, endometria and uterine glands of ovariectomized female mice
Method: Pathological sections of oviduct walls, endometria, and uterine glands of ovariectomized female mice were prepared to evaluate the influence of the complex on the oviduct walls, endometria, and uterine glands of the ovariectomized mice.

[5] = system: ovariectomized female mice; experiment: Uterine weight (endometrial hyperplasia side effect) in ovariectomized female mice; settings: for Uterine weight (mean ± SD): ovariectomized mice, oral, n = 11
[6] = system: ovariectomized female mice; experiment: Femoral dry weight in ovariectomized female mice; settings: oral, 4 weeks, n = 11
[7] = system: ovariectomized female mice; experiment: Femoral length and ratio of femoral ash weight to femoral length in ovariectomized female mice; settings: oral, 4 weeks, n = 11
[8] = system: ovariectomized female mice; experiment: Femoral ash weight in ovariectomized female mice; settings: oral, 4 weeks, n = 11
[9] = system: ovariectomized female mice; experiment: Femoral calcium content in ovariectomized female mice (OCPC method); settings: oral, 4 weeks, n = 11
[10] = at both doses of 2.3 μmol/kg/day and 0.23 μmol/kg/day
[11] = ovariectomized mouse treated at 2.3 μmol/kg/day
[12] = summary of pathological sections FIG. 3A to FIG. 8E

`C[C@]12CC[C@@H]3c4ccc(O)cc4CC[C@H]3[C@@H]1CC[C@@H]2O` [17β-estradiol] was tested, and the “Effect on tail bleeding time (in words)” value [1, 10] was “significantly shortened the tail bleeding time”, the “Bleeding time (tail, mean ± SD)” value ([1]; dose 0.23 μmol/kg/day) was 640.6 ± 189.6^a s and the “Bleeding time (tail, mean ± SD)” value ([1]; dose 2.3 μmol/kg/day) was 659.1 ± 203.8^a s. For the same molecule, the “Trabecular bone density (mean ± SD)” value ([2]; dose 0.23 μmol/kg/day) was 595.35 ± 30.47^d mg/cm^3, the “Trabecular bone density (mean ± SD)” value ([2]; dose 2.3 μmol/kg/day) was 748.57 ± 33.37^a mg/cm^3 and the “BMC (femoral mineral content, mean ± SD)” value ([3]; dose 0.23 μmol/kg/day) was 0.560 ± 0.041 mg/mg. For the same molecule, the “BMC (femoral mineral content, mean ± SD)” value ([3]; dose 2.3 μmol/kg/day) was 0.620 ± 0.020^a mg/mg, the “Thickness of endometrium (pathological section)” value [4, 11] was 23.08 μm and the “Thickness of oviduct wall (pathological section)” value [4, 11] was 152.11 μm. For the same molecule, the “Uterine gland pathology (in words)” value [4, 11] was “the density of the tissue around the uterine gland is significantly reduced”, the “Lesions of uterine glands (in words)” value [4, 12] was “could cause lesions of uterine glands” and the “Thickening of endometria and oviduct walls (in words)” value [4, 12] was “could induce the thickening of endometria and oviduct walls”. For the same molecule, the “Effect on uterine weight (in words)” value [5, 10] was “significantly increased the uterine weight”, the “Uterine weight (mean ± SD)” value ([5]; dose 0.23 μmol/kg) was 0.200 ± 0.041^a g and the “Uterine weight (mean ± SD)” value ([5]; dose 2.3 μmol/kg) was 0.207 ± 0.045^a g. The “Femoral dry weight (mean ± SD)” value ([6]; dose 0.23 μmol/kg/day) was 49.08 ± 6.02^b mg, the “Femoral dry weight (mean ± SD)” value ([6]; dose 2.3 μmol/kg/day) was 54.42 ± 2.96^a mg and the “Ash weight/length (mean ± SD)” value ([7]; dose 0.23 μmol/kg/day) was 1.72 ± 0.22 mg/mm. For the same molecule, the “Ash weight/length (mean ± SD)” value ([7]; dose 2.3 μmol/kg/day) was 2.02 ± 0.20^a mg/mm, the “Femoral ash weight (mean ± SD)” value ([8]; dose 0.23 μmol/kg/day) was 29.08 ± 5.42^b mg and the “Femoral ash weight (mean ± SD)” value ([8]; dose 2.3 μmol/kg/day) was 33.37 ± 3.21^a mg. The “Femoral calcium content (mean ± SD)” value ([9]; dose 0.23 μmol/kg/day) was 23.34 ± 0.70% and the “Femoral calcium content (mean ± SD)” value ([9]; dose 2.3 μmol/kg/day) was 24.57 ± 1.85^a %.
